Experimental data from US20230114207A1, “THE COMBINATION OF CYCLIN DEPENDENT KINASE 7 INHIBITOR AND IMMUNOTHERAPY FOR TREATMENT OF CANCER” (Dana-Farber Cancer Institute, Inc., priority 2019, published 2023).

Assays:
[1] = test system: RP orthotopic model; test: Treatment study in RP orthotopic SCLC model; type: in vivo, mouse
Procedure: All animal studies were reviewed and approved by the Institutional Animal Care and Use Committee (IACUC) at the New York University Langone Health (NYULH) and Dana-Farber Cancer Institute (DFCI). From 6 weeks of age, mice were induced with adenovirus-Cre recombinase (Ad-Cre) by intratracheal intubation to allow cre-lox-mediated recombination of floxed Rb1, p53 and p130 alleles. For syngeneic orthotopic models, ultrasound-guided transthoracic injection was performed using 200,000 RPP631, RP or RPP-MYC cells in 30 μL PBS directly into the lung of 6 to S-week-old C57BL/6 (Jackson Laboratory, Stock No: 000664). For OT-IT cell assay, OT-I mice were purchased from the Jackson Laboratory (Stock No: 003S31). Both males and females mice were used and all mice were maintained in accordance with the respective NYULH and DFCI on the care, welfare, and treatment of laboratory animals. […]
Animals were anesthetized with isoflurane to perform MRI of the lung field using BioSpec USR70/30 horizontal bore system (Bruker) to scan 24 consecutive sections. Tumor volumes within the whole lung were quantified using 3-D slicer software to reconstruct MRI volumetric measurements as described previously. […]

[2] = test system: OT-I CD8^+ T cells; test: Ex vivo OT-I T cell assay; type: cell-based, mouse
Procedure: The spleen of OT-I mice was minced with a razor and mashed through a 40 µm strainer to form a single-cell suspension. Separated cells were then treated with RBC lysis buffer and a number of 5×10^5 cells were seeded in a 96-well U-bottom plate. For conditioned medium culture assay, RPP631 cells were treated with either DMSO or YKL-5-124 for 48 hr and drug was washed off after first 6-hour treatment. Subsequently, DMSO-conditioned medium or YKL-5-124-conditioned medium were collected and added to above single-cell suspension in a 96-well U-bottom plate in the presence of Ova257-264 peptide (10 μg/ml, GenScript, Cat #RP10611) for 4 days. Alternatively, DMSO or YKL-5-124 was added directly to single-cell suspension in the presence of Ova257-264 peptide for 4 days in the T cell assay medium (complete RPMI with HEPES, sodium pyruvate, MEM nonessential amino acids and 2-mercaptethonal). T cell activation markers CD69, TNFα. and IFNγ were analyzed by flow cytometry.

[3] = test system: RPP631 cells; test: EdU and MCM2 imaging by STORM; type: cell-based, mouse; settings: 100 nM, 48 and 72 hr
Procedure: RPP631 cells were incubated in the presence of 100 nM YKL-5-124 for 48-72 hr. EdU was pulsed during the last 30 minutes of YKL-5-124 treatment. Treated cells were pre-extracted using 0.5% Triton in CSK buffer (10 mM Hepes, 300 mM Sucrose, 100 mM NaCl, and 3 mM MgCl2, pH=7.6) for 10 minutes, and fixed with paraformaldehyde (4%) for 30 minutes. Cells were then rinsed 3 times with PBS and blocked (2% glycine, 2% BSA, 0.2% gelatin, and 50 mM NH4Cl in PBS) overnight at 4° C. for further staining. […]
STORM imaging was performed on a customized inverted microscope. […] Cell samples were sequentially illuminated with 639 and 750 laser lines and the emitted fluorescence was collected by the same objective with a 2× magnification tube lens (Diagnostic Instruments). The fluorescence was then filtered by single band filters (Semrock FF01-676/37 and FF02-809/81) switched in a filter wheel accordingly. […]
Each 2000-frame single-molecule image stack was submitted to a home-built software for precise single-molecule localization. […] The fitting accuracy was evaluated using Cramer-Rao Lower Bound (CRLB). Note that the patterned read-out noise of the sCMOS camera was calibrated before imaging. Such read-out noise for each pixel was approximated into a Gaussian distribution and convolved with the Poisson shot noise for MLE fitting. […] The number of fluorophores is proportional to the quantity of EdU and MCM2. […]

[4] = test system: RPP631 cells; test: Bulk RNA-sequencing and GSEA; type: cell-based, mouse; settings: 48 hr
Procedure: Paired-end reads were aligned to mouse mm10 genome using STAR (v2.5.2b). Reads with good mapping quality (MAPQ>30) that aligned to genomic exons were counted using featureCounts (mm10 Ensembl 93) to generate a table with counts for each gene. Differential gene expression analysis was performed using the R package DESeq2 using the lfcShrink function. […] Gene set enrichment analysis (GSEA) was performed on a list of genes ranked from high to low DESeq2 estimated fold-change using the GSEAPreRanked function with enrichment statistic classic and 1000 permutations.

With `C=CC(=O)Nc1ccc(C(=O)Nc2n[nH]c3c2CN(C(=O)N[C@H](CN(C)C)c2ccccc2)C3(C)C)cc1` [YKL-5-124] the “added median survival benefit” value ([1]; RP model, vs control) was “approximately 30 days”, the “tumor response / tumor growth (MRI tumor volume)” value ([1]; RP orthotopic model) was “notably delayed tumor growth” and the “CD8^+ T cell activity” value ([2]; OT-I T cells directly treated) was “No significant effect”. For the same compound, the “percentage of CD69^+, TNFα^+ and IFNγ^+ CD8^+ T cells” value ([2]; YKL-5-124-conditioned medium of mouse SCLC cells vs DMSO-conditioned medium) was “significant increase”, the “EdU content in each nucleus and in each focus” value [3] was “dramatic decrease” and the “MCM2 content in each nucleus and replication focus” value [3] was “significant decline”. The “expression of pro-inflammatory cytokines and chemokines incl. TNFα pathway components and Cxcl10 (heatmaps)” value [4] was “increased expression”, the “genes within GSEA terms associated with cell cycle, mitosis and E2F targets” value [4] was “downregulated” and the “expression of SCLC SE-associated genes” value ([4]; compared with THZ1) was “little effect”. The “'Interferon gamma response', 'TNFα signaling' and 'Inflammatory response' Hallmarks signatures (GSEA)” value ([4]; three of the top five) was “most positively regulated”.
